Assay results taken from US7169816B2, “4-bromo or 4-iodo phenylamino benzhydroxamic acid derivatives and their use as MEK inhibitors” (Warner-Lambert Company, priority 1997, dated 2007).
Counter-ions that a name gives are not always drawn.

target: p45MEK (GST-MEK) (Homo sapiens, UniProt Q02750); assay: Cascade assay for inhibitors of the MAP kinase pathway (in vitro); type: biochemical
Protocol: Incorporation of ^32P into myelin basic protein (MBP) was assayed in the presence of a glutathione S-transferase fusion protein containing p44MAP kinase (GST-MAPK) and a glutathione S-transferase fusion protein containing p45MEK (GST-MEK). The assay solution contained 20 mM HEPES, pH 7.4, 10 mM MgCl2, 1 mM MnCl2, 1 mM EGTA, 50 μM [γ-^32P]ATP, 10 μg GST-MEK, 0.5 μg GST-MAPK and 40 μg MBP in a final volume of 100 μL. […] Compounds were assessed at 10 μM for ability to inhibit incorporation of ^32P.
To ascertain whether compounds were inhibiting GST-MEK or GST MAPK, two additional protocols were employed. In the first protocol, compounds were added to tubes containing GST-MEK, followed by addition of GST-MAPK, MBP and [γ-^32P]ATP. In the second protocol, compounds were added to tubes containing both GST-MEK and GST-MAPK, followed by MBP and [γ-^32P]ATP.

Compound | IC50 [nM]
CONC(=O)c1ccc(F)cc1Nc1ccc(I)cc1C [Example 13, 4-Fluoro-2-(4-iodo-2-methyl-phenylamino)-N-methoxy-benzamide] | 243
Cc1cc(I)ccc1Nc1c(C(=O)NOCC(C)N(C)C)cc(Br)c(F)c1F (stereo not drawn) [Example 92, 5-Bromo-N-(2-dimethylamino-propoxy)-3,4-difluoro-2-(4-iodo-2-methyl-phenylamino)-benzamide] | 33
Cc1cc(I)ccc1Nc1c(C(=O)NOC2CCCCO2)ccc(F)c1F (stereo not drawn) [Example 83, 3,4-Difluoro-2-(4-iodo-2-methyl-phenylamino)-N-(tetrahydro-pyran-2-yloxy)-benzamide] | 31
O=C(NOC1CCCCO1)c1cc(Br)c(F)c(F)c1Nc1ccc(I)cc1Cl (stereo not drawn) [Example 94, 5-Bromo-2-(2-chloro-4-iodo-phenylamino)-3,4-difluoro-N-(tetrahydro-pyran-2-yloxy)-benzamide] | 38
C#CC(C)ONC(=O)c1ccc(F)c(F)c1Nc1ccc(I)cc1C (stereo not drawn) [Example 27, 3,4-Difluoro-2-(4-iodo-2-methyl-phenylamino)-N-(1-methyl-prop-2-ynyloxy)-benzamide] | 26
CC=CCONC(=O)c1ccc(F)c(F)c1Nc1ccc(Br)cc1C [Example 70, 2-(4-Bromo-2-methyl-phenylamino)-N-(but-2-enyloxy)-3,4-difluoro-benzamide] | 224
Cc1cc(I)ccc1Nc1c(C(=O)NOC2CCC2)ccc(F)c1F [Example 50, N-Cyclobutyloxy-3,4-difluoro-2-(4-iodo-2-methyl-phenylamino)-benzamide] | 43
4-Fluoro-2-(4-iodo-2-methyl-phenylamino)-N-phenylmethoxy-benzamide [Example 77] | 280
CN(C)CCONC(=O)c1cc(Br)c(F)c(F)c1Nc1ccc(I)cc1Cl [Example 91, 5-Bromo-2-(2-chloro-4-iodo-phenylamino)-N-(2-dimethylamino-ethoxy)-3,4-difluoro-benzamide monohydrochloride salt] | 20
CC=CCONC(=O)c1cc(Br)c(F)c(F)c1Nc1ccc(I)cc1C [Example 24, 5-Bromo-N-(but-2-enyloxy)-3,4-difluoro-2-(4-iodo-2-methyl-phenylamino)-benzamide] | 21
CCCONC(=O)c1cc(Br)c(F)c(F)c1Nc1ccc(I)cc1C [Example 45, 5-Bromo-3,4-difluoro-2-(4-iodo-2-methyl-phenylamino)-N-propoxy-benzamide] | 126
O=C(NOC1CCCCO1)c1ccc(F)cc1Nc1ccc(I)cc1Cl (stereo not drawn) [Example 88, 2-(2-Chloro-4-iodo-phenylamino)-4-fluoro-N-(tetrahydro-pyran-2-yloxy)-benzamide] | 69
Cc1cc(I)ccc1Nc1cc(F)ccc1C(=O)NOCc1cccs1 [Example 62, 4-Fluoro-2-(4-iodo-2-methyl-phenylamino)-N-(thiophen-2-ylmethoxy)-benzamide] | 86
CC=CCONC(=O)c1ccc(F)cc1Nc1ccc(I)cc1C [Example 68, N-(But-2-enyloxy)-4-fluoro-2-(4-iodo-2-methyl-phenylamino)-benzamide] | 119
Cc1cc(Br)ccc1Nc1c(C(=O)NOCc2ccoc2)ccc(F)c1F [Example 22, 2-(4-Bromo-2-methyl-phenylamino)-3,4-difluoro-N-(furan-3-ylmethoxy)-benzamide] | 137
Cc1cc(Br)ccc1Nc1c(C(=O)NOCC2CC2)ccc(F)c1F [Example 57, 2-(4-Bromo-2-methyl-phenylamino)-N-cyclopropylmethoxy-3,4-difluoro-benzamide] | 181
Cc1cc(I)ccc1Nc1c(C(=O)NOCC#Cc2ccccc2F)cc(Br)c(F)c1F [Example 37, 5-Bromo-3,4-difluoro-N-[3-(2-fluoro-phenyl)-prop-2-ynyloxy]-2-(4-iodo-2-methyl-phenylamino)-benzamide] | 2
C#CCCONC(=O)c1ccc(F)c(F)c1Nc1ccc(Br)cc1C [Example 30, 2-(4-Bromo-2-methyl-phenylamino)-N-(but-3-ynyloxy)-3,4-difluoro-benzamide] | 971
